US9944602B2, “Piperidinone herbicides” (E. I. DU PONT DE NEMOURS AND COMPANY, priority 2014, dated 2018)

What was measured:
Format in all cases: in vivo
[1] = test system: ryegrass, Italian (Italian ryegrass, Lolium multiflorum); experiment: Test C postemergence ryegrass, Italian; conditions: Table C, scale 0 to 100
From the text: (§1) Seeds of plant species selected from blackgrass (Alopecurus myosuroides), ryegrass, Italian (Italian ryegrass, Lolium multiflorum), wheat (winter wheat, Triticum aestivum), galium (catchweed bedstraw, Galium aparine), corn (Zea mays), crabgrass, large (large crabgrass, Digitaria sanguinalis), foxtail, giant (giant foxtail, Setaria faberii), johnsongrass (Sorghum halepense), lambsquarters (Chenopodium album), morningglory (Ipomoea coccinea), yellow (yellow nutsedge, Cyperus esculentus), pigweed (Amaranthus retroflexus), ragweed (common ragweed, Ambrosia elatior), soybean (Glycine max), barnyardgrass (Echinochloa crus-galli), oilseed rape (Brassica napus), waterhemp (common waterhemp, Amaranthus rudis), and velvetleaf (Abutilon theophrasti) were planted into a blend of loam soil and sand and treated preemergence with test chemicals formulated in a non-phytotoxic solvent mixture which included a surfactant. At the same time, plants selected from these crop and weed species and also chickweed (common chickweed, Stellaria media), kochia (Kochia scoparia), and oat, wild (wild oat, Avena fatua) were planted in pots containing Sunshine Redi-Earth® planting medium comprising spaghnum peat moss, vermiculite, starter nutrients and dolomitic limestone and treated with postemergence applications of test chemicals formulated in the same manner. Plants ranged in height from 2 to 18 cm (1- to 4-leaf stage) for postemergence treatments. Treated plants and controls were maintained in a greenhouse for 13 to 15 days, after which time all species were compared to controls and visually evaluated. Plant response ratings, summarized in Table C, are based on a scale of 0 to 100 where 0 is no effect and 100 is complete control. A dash (-) response means no test result.

[2] = test system: galium (catchweed bedstraw, Galium aparine); experiment: Test C postemergence galium; conditions: Table C, scale 0 to 100
From the text: as §1

corn (Zea mays) = experiment: Test C postemergence corn; conditions: Table C, scale 0 to 100
From the text: as §1

[3] = test system: crabgrass, large (large crabgrass, Digitaria sanguinalis); experiment: Test C postemergence crabgrass, large; conditions: Table C, scale 0 to 100
From the text: as §1

[4] = test system: foxtail, giant (giant foxtail, Setaria faberii); experiment: Test C postemergence foxtail, giant; conditions: Table C, scale 0 to 100
From the text: as §1

[5] = test system: lambsquarters (Chenopodium album); experiment: Test C postemergence lambsquarters; conditions: Table C, scale 0 to 100
From the text: as §1

soybean (Glycine max) = experiment: Test C postemergence soybean; conditions: Table C, scale 0 to 100
From the text: as §1

[6] = test system: oat, wild (wild oat, Avena fatua); experiment: Test C postemergence oat, wild; conditions: Table C, scale 0 to 100
From the text: as §1

[7] = test system: blackgrass (Alopecurus myosuroides); experiment: Test C preemergence blackgrass; conditions: Table C, scale 0 to 100
From the text: as §1

[8] = test system: galium (catchweed bedstraw, Galium aparine); experiment: Test C preemergence galium; conditions: Table C, scale 0 to 100
From the text: as §1

[9] = test system: crabgrass, large (large crabgrass, Digitaria sanguinalis); experiment: Test C preemergence crabgrass, large; conditions: Table C, scale 0 to 100
From the text: as §1

[10] = test system: johnsongrass (Sorghum halepense); experiment: Test C preemergence johnsongrass; conditions: Table C, scale 0 to 100
From the text: as §1

[11] = test system: pigweed (Amaranthus retroflexus); experiment: Test C preemergence pigweed; conditions: Table C, scale 0 to 100
From the text: as §1

[12] = test system: oilseed rape (Brassica napus); experiment: Test C preemergence oilseed rape; conditions: Table C, scale 0 to 100
From the text: as §1

[13] = test system: waterhemp (common waterhemp, Amaranthus rudis); experiment: Test C preemergence waterhemp; conditions: Table C, scale 0 to 100
From the text: as §1

[14] = test system: velvetleaf (Abutilon theophrasti); experiment: Test C preemergence velvetleaf; conditions: Table C, scale 0 to 100
From the text: as §1

[15] = test system: velvetleaf (Abutilon theophrasti); experiment: Test A preemergence velvetleaf; conditions: 0 to 100 scale, 0 no effect, 100 complete control
From the text: (§2) Seeds of plant species selected from barnyardgrass (Echinochloa crus-galli), kochia (Kochia scoparia), ragweed (common ragweed, Ambrosia elatior), ryegrass, Italian (Italian ryegrass, Lolium multiflorum), crabgrass, large (large crabgrass, Digitaria sanguinalis), foxtail, giant (giant foxtail, Setaria faberii), morningglory (Ipomoea spp.), pigweed (Amaranthus retroflexus), velvetleaf (Abutilon theophrasti), wheat (Triticum aestivum), and corn (Zea mays) were planted into a blend of loam soil and sand and treated preemergence with a directed soil spray using test chemicals formulated in a non-phytotoxic solvent mixture which included a surfactant.
(§3) At the same time, plants selected from these crop and weed species and also blackgrass (Alopecurus myosuroides), and galium (catchweed bedstraw, Galium aparine) were planted in pots containing the same blend of loam soil and sand and treated with postemergence applications of test chemicals formulated in the same manner. Plants ranged in height from 2 to 10 cm and were in the one- to two-leaf stage for the postemergence treatment. Treated plants and untreated controls were maintained in a greenhouse for approximately 10 d, after which time all treated plants were compared to untreated controls and visually evaluated for injury. Plant response ratings, summarized in Table A, are based on a 0 to 100 scale where 0 is no effect and 100 is complete control. A dash (-) response means no test result.

[16] = test system: crabgrass, large (large crabgrass, Digitaria sanguinalis); experiment: Test A postemergence crabgrass, large; conditions: 0 to 100 scale, 0 is no effect, 100 is complete control
From the text: as §2, §3

O=C1NCCC(c2cccc(C(F)(F)F)c2)C1C(=O)Nc1ccccc1Cl (racemic) [Compound 17]
Plant response rating ([1]; 31 g ai/ha): 0 | Plant response rating ([1]; 62 g ai/ha): 0 | Plant response rating ([1]; 125 g ai/ha): 0 | Plant response rating ([1]; 250 g ai/ha): 0 | Plant response rating ([2]; 31 g ai/ha): 0 | Plant response rating ([2]; 62 g ai/ha): 0 | Plant response rating ([2]; 125 g ai/ha): 0 | Plant response rating ([2]; 250 g ai/ha): 0 | Plant response rating (corn (Zea mays); 31 g ai/ha): 0 | Plant response rating (corn (Zea mays); 62 g ai/ha): 0 | Plant response rating (corn (Zea mays); 125 g ai/ha): 0 | Plant response rating (corn (Zea mays); 250 g ai/ha): 0 | Plant response rating ([3]; 31 g ai/ha): 5 | Plant response rating ([3]; 62 g ai/ha): 20 | Plant response rating ([3]; 125 g ai/ha): 20 | Plant response rating ([3]; 250 g ai/ha): 55 | Plant response rating ([4]; 31 g ai/ha): 0 | Plant response rating ([4]; 62 g ai/ha): 5 | Plant response rating ([4]; 125 g ai/ha): 5 | Plant response rating ([4]; 250 g ai/ha): 5 | Plant response rating ([5]; 62 g ai/ha): 75 | Plant response rating ([5]; 250 g ai/ha): 80 | Plant response rating (soybean (Glycine max); 31 g ai/ha): 0 | Plant response rating (soybean (Glycine max); 62 g ai/ha): 10 | Plant response rating (soybean (Glycine max); 125 g ai/ha): 0 | Plant response rating (soybean (Glycine max); 250 g ai/ha): 0 | Plant response rating ([6]; 31 g ai/ha): 0 | Plant response rating ([6]; 62 g ai/ha): 0 | Plant response rating ([6]; 125 g ai/ha): 0 | Plant response rating ([6]; 250 g ai/ha): 0

O=C1NCCC(c2cccc(C(F)(F)F)c2)C1C(=O)Nc1ccc(F)c(F)c1F (racemic) [Compound 28]
Plant response rating ([7]; 31 g ai/ha): 35 | Plant response rating ([7]; 62 g ai/ha): 40 | Plant response rating ([7]; 125 g ai/ha): 70 | Plant response rating ([7]; 250 g ai/ha): 90 | Plant response rating ([8]; 31 g ai/ha): 0 | Plant response rating ([9]; 31 g ai/ha): 80 | Plant response rating ([9]; 62 g ai/ha): 85 | Plant response rating ([9]; 125 g ai/ha): 90 | Plant response rating ([9]; 250 g ai/ha): 90 | Plant response rating ([10]; 31 g ai/ha): 0 | Plant response rating ([10]; 62 g ai/ha): 0 | Plant response rating ([10]; 125 g ai/ha): 0 | Plant response rating ([10]; 250 g ai/ha): 10 | Plant response rating ([11]; 125 g ai/ha): 0 | Plant response rating ([12]; 31 g ai/ha): 0 | Plant response rating ([12]; 62 g ai/ha): 0 | Plant response rating ([12]; 125 g ai/ha): 0 | Plant response rating ([12]; 250 g ai/ha): 0 | Plant response rating ([13]; 31 g ai/ha): 0 | Plant response rating ([13]; 125 g ai/ha): 0 | Plant response rating ([13]; 250 g ai/ha): 60 | Plant response rating ([14]; 31 g ai/ha): 10 | Plant response rating ([14]; 62 g ai/ha): 0 | Plant response rating ([14]; 125 g ai/ha): 20 | Plant response rating ([14]; 250 g ai/ha): 20

O=C1NCCC(c2cccc(C(F)(F)F)c2)C1C(=O)Nc1ccccc1C(F)(F)F (stereo not shown) [Compound 10, 2-oxo-N-[2-(trifluoromethyl)phenyl)-4-[3-(trifluoromethyl)phenyl]-3-piperidinecarboxamide]
Velvetleaf plant response rating ([15]; 125 g ai/ha): 0 | Velvetleaf plant response rating ([15]; 500 g ai/ha): 0 | Plant response rating, Crabgrass, Large ([16]; 125 g ai/ha): 60 | Plant response rating, Crabgrass, Large ([16]; 500 g ai/ha): 80

O=C1NCCC(c2cccc(C(F)(F)F)c2)C1C(=O)Nc1cccc(F)c1F (stereo not shown) [Compound 9, N-(2,3-difluorophenyl)-2-oxo-4-[3-(trifluoromethyl)phenyl]-3-piperidinecarboxamide]
Velvetleaf plant response rating ([15]; 125 g ai/ha): 0 | Velvetleaf plant response rating ([15]; 500 g ai/ha): 0 | Plant response rating, Crabgrass, Large ([16]; 125 g ai/ha): 80 | Plant response rating, Crabgrass, Large ([16]; 500 g ai/ha): 90 | Plant response rating ([7]; 31 g ai/ha): 50 | Plant response rating ([7]; 62 g ai/ha): 40 | Plant response rating ([7]; 125 g ai/ha): 80 | Plant response rating ([7]; 250 g ai/ha): 90 | Plant response rating ([8]; 31 g ai/ha): 0 | Plant response rating ([8]; 62 g ai/ha): 0 | Plant response rating ([8]; 125 g ai/ha): 0 | Plant response rating ([8]; 250 g ai/ha): 75 | Plant response rating ([9]; 31 g ai/ha): 95 | Plant response rating ([9]; 62 g ai/ha): 95 | Plant response rating ([9]; 125 g ai/ha): 98 | Plant response rating ([9]; 250 g ai/ha): 98 | Plant response rating ([10]; 31 g ai/ha): 0 | Plant response rating ([10]; 62 g ai/ha): 0 | Plant response rating ([10]; 125 g ai/ha): 35 | Plant response rating ([10]; 250 g ai/ha): 55 | Plant response rating ([11]; 31 g ai/ha): 5 | Plant response rating ([11]; 62 g ai/ha): 0 | Plant response rating ([11]; 125 g ai/ha): 0 | Plant response rating ([11]; 250 g ai/ha): 10 | Plant response rating ([12]; 31 g ai/ha): 0 | Plant response rating ([12]; 62 g ai/ha): 0 | Plant response rating ([12]; 125 g ai/ha): 0 | Plant response rating ([12]; 250 g ai/ha): 40 | Plant response rating ([13]; 31 g ai/ha): 15 | Plant response rating ([13]; 62 g ai/ha): 0 | Plant response rating ([13]; 125 g ai/ha): 20 | Plant response rating ([13]; 250 g ai/ha): 0 | Plant response rating ([14]; 31 g ai/ha): 0 | Plant response rating ([14]; 62 g ai/ha): 5 | Plant response rating ([14]; 125 g ai/ha): 0 | Plant response rating ([14]; 250 g ai/ha): 0 | Plant response rating ([1]; 31 g ai/ha): 0 | Plant response rating ([1]; 62 g ai/ha): 0 | Plant response rating ([1]; 125 g ai/ha): 0 | Plant response rating ([1]; 250 g ai/ha): 0 | Plant response rating ([2]; 31 g ai/ha): 0 | Plant response rating ([2]; 62 g ai/ha): 0 | Plant response rating ([2]; 125 g ai/ha): 0 | Plant response rating ([2]; 250 g ai/ha): 40 | Plant response rating (corn (Zea mays); 31 g ai/ha): 0 | Plant response rating (corn (Zea mays); 62 g ai/ha): 0 | Plant response rating (corn (Zea mays); 125 g ai/ha): 0 | Plant response rating (corn (Zea mays); 250 g ai/ha): 0 | Plant response rating ([3]; 31 g ai/ha): 0 | Plant response rating ([3]; 62 g ai/ha): 35 | Plant response rating ([3]; 125 g ai/ha): 75 | Plant response rating ([3]; 250 g ai/ha): 75 | Plant response rating ([4]; 31 g ai/ha): 0 | Plant response rating ([4]; 62 g ai/ha): 5 | Plant response rating ([4]; 125 g ai/ha): 35 | Plant response rating ([4]; 250 g ai/ha): 85 | Plant response rating ([5]; 31 g ai/ha): 0 | Plant response rating ([5]; 62 g ai/ha): 0 | Plant response rating ([5]; 125 g ai/ha): 5 | Plant response rating ([5]; 250 g ai/ha): 0 | Plant response rating (soybean (Glycine max); 31 g ai/ha): 0 | Plant response rating (soybean (Glycine max); 62 g ai/ha): 0 | Plant response rating (soybean (Glycine max); 125 g ai/ha): 0 | Plant response rating (soybean (Glycine max); 250 g ai/ha): 10 | Plant response rating ([6]; 31 g ai/ha): 0 | Plant response rating ([6]; 62 g ai/ha): 0 | Plant response rating ([6]; 125 g ai/ha): 0 | Plant response rating ([6]; 250 g ai/ha): 0
